{
  "source": "patent US20190359560A1",
  "about": "“ANTI-INFLAMMATORY DRUG AND USES THEREOF” (KYUSHU UNIVERSITY, NATIONAL UNIVERSITY CORPORATION, priority 2015, published 2019)",
  "key": {"G0S2 promoter": {"test_system": "G0S2 promoter", "experiment": "G0S2 promoter luciferase activity in O-4000E cell line, IC50", "format": "cell-based, mouse", "conditions": "O-4000E cells, 24 hours after exposure", "procedure": "The present inventors have searched for a G0S2 gene transcription inhibitor. In searching, the present inventors have received a compound library consisting of 9600 compounds (Core library) from the Open Innovation Center for Drug Discovery, The University of Tokyo. For this compound library, primary screening was carried out by evaluating an effect of compounds on a luciferase activity using a 384-well plate. The drug efficacy evaluation was studied three times for each compound (final concentration of 10 μM) using a cell line stably expressing an expression cassette in which a luciferase gene was ligated to the downstream side of the G0S2 promoter (−2030→−1378), and compounds which reduced a luciferase activity to less than ¼ were extracted from all studies. As a result, 175 compounds were hit.\nFor the evaluation of drug efficacy of Compound Nos. 1 and 2, which are hit compounds, an IC50 was calculated. The O-4000E cell line was seeded, and Compound Nos. 1 and 2 were serially diluted in […] so as to have final concentrations of 0.15625 μM to 10 μM, followed by exposure of the cells to the compounds. The luciferase activity was measured 24 hours after the exposure, and the curve fitting was carried out to calculate an IC50 of the compounds.\nDetailed drug efficacy evaluation at low concentrations was carried out for the compound of Example 2 (NS-3-011) whose drug efficacy at a concentration of less than 10 μM was observed based on the studies so far and which is expected to have an effect equal to or more than that of Compound No. 2. First, using O-4000E cells, IC50 of Compound No. 2 and the compound of Example 2 (NS-3-011) on the G0S2 promoter activity was calculated."}, "[1]": {"experiment": "Blood and liver concentration after oral administration (LC/MS/MS)", "format": "in vivo, mouse", "conditions": "mice, 15 mg/kg oral", "procedure": "Compound No. 2 (15 mg/kg) was orally administered to mice. Blood was collected at 0 minutes, 5 minutes, 15 minutes, 30 minutes, 1 hour, 2 hours, 4 hours, 6 hours and 12 hours after the administration of Compound No. 2 and the blood concentration of the compound was measured by LC/MS/MS. In addition, the liver was harvested at 0 minutes, 5 minutes, 15 minutes, 30 minutes, 1 hour and 6 hours after the administration of Compound No. 2, and the liver concentration of the compound was measured by LC/MS/MS."}, "STAT5 protein": {"test_system": "STAT5 protein", "experiment": "Nuclear abundance of STAT5 protein in NIH3T3 cells (Western blotting)", "format": "cell-based, mouse", "conditions": "NIH3T3 cells, 2.5, 5 and 10 μM, 24 hours, vs control", "procedure": "Compound No. 2 or DMSO (control) at final concentrations of 2.5, 5 and 10 μM was added to the medium of NIH3T3 cells, which are mouse fibroblasts. Subsequently, the cells were recovered after 24 hours, the nuclear protein was prepared, and the abundance of the STAT5 protein was measured by Western blotting."}, "[2]": {"test_system": "nuclear receptor RARα mRNA", "experiment": "RARα mRNA expression in Hepa1-6 cells (qRT-PCR)", "format": "cell-based, mouse", "conditions": "10 μM, 24 hours"}, "p65 protein (NF-κB)": {"test_system": "p65 protein (NF-κB)", "experiment": "LPS-administered mice: nuclear abundance of p65 protein in liver (Western blotting)", "format": "in vivo", "conditions": "LPS 10 μg/mouse tail vein; 5 mg/kg subcutaneous 1 hour after LPS; liver 5 hours later; vs LPS group", "procedure": "LPS (10 μg/mouse) was administered to ICR male mice by tail vein injection to prepare an LPS-administered group. In addition, a mouse to which physiological saline was administered instead of LPS was prepared and used as a control group. Subsequently, the LPS-administered group was divided into two groups, in which 1 hour after the administration of LPS, Compound No. 2 was subcutaneously administered at a dose of 5 mg/kg to the dorsal region of mice of one group which was then served as an LPS+No. 2-administered group. Subsequently, 5 hours after the administration of Compound No. 2, mice of each group were sacrificed and the liver was harvested.\nFor the liver of mice of each group, the nuclear abundance of the p65 protein, which is one of the constituent proteins of NF-κB, was quantified by Western blotting. FIG. 11B is a graph showing the quantitative results of the p65 protein."}, "Bmal1 promoter": {"test_system": "Bmal1 promoter", "experiment": "Bmal1 promoter luciferase assay in MEF cell line", "format": "cell-based", "conditions": "MEF reporter cell line, 10 μM, 24 hours", "procedure": "Therefore, in order to exclude compounds having an effect on clock genes in normal cells, studies were conducted using the MEF cell line stably expressing an expression cassette in which a luciferase gene was ligated to the downstream side of the Bmal1 promoter."}, "[3]": {"test_system": "neuropathic pain model mouse", "experiment": "Neuropathic pain model constructed by cancer transplantation", "format": "in vivo", "conditions": "tumor-bearing mice 2 weeks after cancer transplantation, 15 mg/kg subcutaneous, at 4, 6 and 8 hours", "procedure": "The neuropathic pain model constructed by cancer transplantation activates NF-κB. Therefore, a dose of 15 mg/kg of Compound No. 2 was subcutaneously administered to a model mouse in which the […] was carried out at 2 weeks after cancer transplantation and the pain intensity was measured to confirm that pain was induced."}, "[4]": {"test_system": "G0S2 transcriptional activity regulatory region", "experiment": "Luciferase assay with G0S2 transcriptional activity regulatory regions of each length in NIH3T3 cells", "format": "cell-based, mouse", "conditions": "NIH3T3 stable cells, 10 μM, 24 hours", "procedure": "Subsequently, these expression vectors were transfected into NIH3T3 cells, which are mouse fibroblast cells, to construct cells stably expressing luciferase.\nSubsequently, Compound No. 2 or DMSO (control) at a final concentration of 10 μM was added to the medium of each cell. Subsequently, the cells were recovered after 24 hours and the luciferase activity was measured."}, "Ccl2 mRNA": {"test_system": "Ccl2 mRNA", "experiment": "LPS hepatitis model mouse: Ccl2 mRNA in liver", "format": "in vivo", "procedure": "Next, whether or not Compound No. 2 whose effect in vivo was confirmed has an effect to antagonize the activation of an inflammatory signal was examined. Hepa1-6 cells were exposed to Compound No. 2 at a dose of 10 μM simultaneously with exposure to lipopolysaccharide (LPS) or TNFα which activates NF-κB for which the G0S2 protein acts as a regulator. As shown in FIGS. 10A and 10B, the cells were recovered 12 hours after the exposure and the expression level of Ccl2 mRNA was measured. […] In addition, 25 μg of LPS was administered to the tail vein of a mouse to thereby construct a hepatitis model. 30 minutes after the administration of LPS, Compound No. 2 (5 mg/kg) was administered to the tail vein of the mouse, and the liver was sampled at 6 hours.\nLPS (10 μg/mouse) was administered to ICR male mice by tail vein injection to prepare an LPS-administered group. […]\nIn addition, for the liver of mice of each group, the expression level of mRNA of Ccl2, which is a target gene of NF-κB, was quantified by real-time PCR. FIG. 11C is a graph showing the quantitative results of the expression level of mRNA of Ccl2.\n10 μg of LPS was intraperitoneally administered to mice to construct a hepatitis model. […] 5 hours after the administration of each compound, the liver was harvested from each mouse and the expression level of Ccl2 was quantified by real-time PCR."}},
  "data": [
    {"compound": "CCCCCCNC(=N)NCc1ccccc1", "note": "[Compound No. 2]", "values": [
      {"measurement": "IC50", "setting": "G0S2 promoter; Mus musculus, 24 h", "value": 2250, "unit": "nM"},
      {"measurement": "IC50", "setting": "G0S2 promoter", "value": 2310, "unit": "nM"},
      {"measurement": "time after administration at which concentration in blood was highest", "setting": "[1]", "value": 15, "unit": "min"},
      {"measurement": "time after administration at which concentration in liver was highest", "setting": "[1]", "value": 5, "unit": "min"},
      {"measurement": "nuclear abundance of the STAT5 protein", "setting": "STAT5 protein", "value": "decreased in a dose-dependent manner"},
      {"measurement": "expression level of nuclear receptor RARα mRNA", "setting": "[2]", "value": "no change"},
      {"measurement": "nuclear abundance of the p65 protein in the liver", "setting": "p65 protein (NF-κB)", "value": "significantly decreased"},
      {"measurement": "Bmal1 promoter activity", "setting": "Bmal1 promoter", "value": "no significant change"},
      {"measurement": "pain intensity (PWT) over time", "setting": "[3]", "value": "significantly relieved"},
      {"measurement": "effect of inhibiting the expression of luciferase when the STAT5/6 binding region disappears", "setting": "[4]", "value": "decreased"},
      {"measurement": "expression level of Ccl2 mRNA in the liver", "setting": "Ccl2 mRNA; LPS 10 μg/mouse tail vein, 5 mg/kg subcutaneous 1 hour after LPS, liver 5 hours later, vs LPS group", "value": "significantly decreased"},
      {"measurement": "expression of Ccl2 mRNA in the liver", "setting": "Ccl2 mRNA; LPS 25 μg tail vein, compound 5 mg/kg tail vein 30 minutes after LPS, liver at 6 hours", "value": "significantly inhibited"}
    ]}
  ]
}
